Source: patent US7268152B2, “Glucocorticoid mimetics, methods of making them, pharmaceutical compositions, and uses thereof” (Boehringer Ingelheim Pharmaceuticals, Inc., priority 2002, dated 2007)

These compounds were tested on glucocorticoid receptor (assay: One or more of the above assays (GR binding and GR cell assays; not specified which)). Settings: in one or more of the above assays.
Assay type: cell-based
Method: This assay uses fluorescence polarization (FP) to quantitate the ability of test compounds to compete with tetramethyl rhodamine (TAMRA)-labeled dexamethasone for binding to a human glucocorticoid receptor (GR) complex prepared from an insect expression system. The assay buffer was: 10 mM TES, 50 mM KCl, 20 mM Na2MoO4.2H2O, 1.5 mM EDTA, 0.04% w/v CHAPS, 10% v/v glycerol, 1 mM dithiothreitol, pH 7.4. Test compounds were dissolved to 1 mM in neat DMSO and then further diluted to 10×assay concentration in assay buffer supplemented with 10% v/v DMSO. Test compounds were serially diluted at 10×assay concentrations in 10% DMSO-containing buffer in 96-well polypropylene plates. […] Positive controls were reaction mixtures containing no test compound; negative controls (blanks) were reaction mixtures containing 0.7 μM to 2 μM dexamethasone. […] IC50 values were determined by iterative non-linear curve fitting of the FP signal data to a 4-parameter logistic equation.
B. Glucocorticoid Receptor Cell Assays
1. Induction of Aromatase in Fibroblasts (Cell Assay for Transactivation)
Dexamethasone, a synthetic ligand to the glucocorticoid receptor (GR), induces expression of aromatase in human foreskin fibroblast cells. The activity of aromatase is measured by the conversion of testosterone to estradiol in culture media.
On the day of the experiment, the media in the wells is replaced with fresh media. Cells are treated with test compounds to final concentrations of 10^−5 M to 10 ^−8 M, and testosterone to a final concentration of 300 ng/mL. Each well has a total volume of 100 μL. Samples are made in duplicates. Control wells include: (a) wells that receive testosterone only, and (b) wells that receive testosterone plus 2 μM of dexamethasone to provide maximum induction of aromatase. Plates are incubated at 37° C. overnight (15 to 18 hours), and supernatants are harvested at the end of incubation. […] The amount of estradiol is inversely proportional to the ELISA signals in each well. The extent of aromatase induction by test compounds is expressed as a relative percentage to dexamethasone. EC50 values of test compounds are derived by non-linear curve fitting.
2. Inhibition of IL-6 Production in Fibroblasts (Cell Assay for Transrepression)
Human foreskin fibroblast cells produce IL-6 in response to stimulation by pro-inflammatory cytokine IL-1.
On the next day, media in the wells is replaced with fresh media. Cells are treated with IL-1 (rhIL-1α, R&D Systems Cat. No. 200-LA) to a final concentration of 1 ng/mL, and with test compounds to final concentrations of 10 ^−5 M to 10 ^−8 M, in a total volume of 200 μL per well. Samples are done in duplicates. […] Positive control wells receive IL-1 only and represent maximum (or 100%) amount of IL-6 production. Plates are incubated at 37° C. overnight (15 to 18 hours), and supernatants are harvested at the end of incubation. IL-6 levels in the supernatants are determined by the ELISA kits for IL-6 (MedSystems Diagnostics GmbH, Vienna, Austria, Cat. No. BMS213TEN) according to manufacture's instructions. The extent of inhibition of IL-6 by test compounds is expressed in percentage relative to positive controls. IC50 values of test compounds are derived by non-linear curve fitting.
Evaluation of agonist or antagonist activity of compounds binding to the glucocorticoid receptor may be determined by any of the assays.
3. Modulation of Tyrosine Aminotransferase (TAT) Induction in Rat Hepatoma Cells
Testing of compounds for agonist or antagonist activity in induction of tyrosine aminotransferase (TAT) in rat hepatoma cells.
H4-II-E-C3 cells were incubated overnight in 96 well plates (20,000 cells/100 μL/well) in MEM medium containing 10% heat inactivated FBS and 1% nonessential amino acids. On the next day, cells were stimulated with the indicated concentrations of dexamethasone or test compound (dissolved in DMSO, final DMSO concentration 0.2%) for 18 hours. Control cells were treated with 0.2% DMSO.

Row | Structure (SMILES) | activity as agonists of the glucocorticoid receptor function
1 | CC(C)(CC(O)(Cc1ccc(C#N)cc1Cl)C(F)(F)F)c1ccc2c(c1)CCO2 (centres unmarked) [3-Chloro-4-[4-(2,3-dihydrobenzofuran-5-yl)-2-hydroxy-4-methyl-2-trifluoromethylpentyl]benzonitrile] | activity as agonists
2 | CC(C)(CC(O)(Cc1ccc(C#N)cc1Cl)C(F)(F)F)c1ccc2ccccc2c1 (centres unmarked) [3-Chloro-4-(2-hydroxy-4-methyl-4-naphthalen-2-yl-2-trifluoromethylpentyl)benzonitrile] | activity as agonists
3 | CC(C)(CC(O)(Cc1ccc(C#N)cc1Cl)C(F)(F)F)c1cc(O)cc(O)c1 (centres unmarked) [3-Chloro-4-[4-(3,5-dihydroxyphenyl)-2-hydroxy-4-methyl-2-trifluoromethylpentyl]benzonitrile] | activity as agonists
4 | COc1cccc(C(C)(C)CC(O)(Cc2ccc(C#N)cc2Cl)C(F)(F)F)c1 (centres unmarked) [3-Chloro-4-[2-hydroxy-4-(3-methoxyphenyl)-4-methyl-2-trifluoromethylpentyl]benzonitrile] | activity as agonists
5 | COc1ccc(F)cc1C(C)(C)CC(O)(Cc1cc(Cl)cc(Cl)c1Cl)C(F)(F)F (centres unmarked) [1,1,1-Trifluoro-4-(5-fluoro-2-methoxyphenyl)-4-methyl-2-(2,3,5-trichlorobenzyl)pentan-2-ol] | activity as agonists
6 | CC(C)(CC(O)(Cc1ccc(C#N)cc1Cl)C1CC1)c1cccc2c1OCC2 (centres unmarked) [3-Chloro-4-[2-cyclopropyl-4-(2,3-dihydrobenzofuran-7-yl)-2-hydroxy-4-methylpentyl]benzonitrile] | activity as agonists
7 | COc1cc(OC)cc(C(C)(C)CC(O)(Cc2ccc(C#N)cc2Cl)C(F)(F)F)c1 (centres unmarked) [3-Chloro-4-[4-(3,5-dimethoxyphenyl)-2-hydroxy-4-methyl-2-trifluoromethylpentyl]benzonitrile] | activity as agonists
8 | CC(C)(CC(O)(Cc1ccc(C(=O)C2CC2)cc1Cl)C1CC1)c1cccc2c1OCC2 (centres unmarked) [{3-Chloro-4-[2-cyclopropyl-4-(2,3-dihydrobenzofuran-7-yl)-2-hydroxy-4-methylpentyl]phenyl}cyclopropylmethanone] | activity as agonists
9 | Cc1cccc(C(C)(C)CC(O)(Cc2ccc(C#N)cc2Cl)C2CC2)c1 (centres unmarked) [3-Chloro-4-[2-cyclopropyl-2-hydroxy-4-methyl-4-(3-methylphenyl)pentyl]benzonitrile] | activity as agonists
10 | Cc1cc(C)c(C#N)c(CC(O)(CC(C)(C)c2cc(F)ccc2O)C(F)(F)F)c1 (centres unmarked) [2-[4-(5-Fluoro-2-hydroxyphenyl)-2-hydroxy-4-methyl-2-trifluoromethylpentyl]-4,6-dimethylbenzonitrile] | activity as agonists
11 | Cc1cc(CC(O)(CC(C)(C)c2cc(F)ccc2O)C(F)(F)F)cc(C)c1C#N (centres unmarked) [4-[4-(5-Fluoro-2-hydroxyphenyl)-2-hydroxy-4-methyl-2-trifluoromethylpentyl]-2,6-dimethylbenzonitrile] | activity as agonists
12 | Cc1cc(Br)cc(CC(O)(CC(C)(C)c2cc(F)ccc2O)C(F)(F)F)c1F (centres unmarked) [2-[3-(5-Bromo-2-fluoro-3-methylbenzyl)-4,4,4-trifluoro-3-hydroxy-1,1-dimethylbutyl]-4-fluorophenol] | activity as agonists
13 | CC(C)(CC(O)(Cc1ccc(C#N)cc1Cl)C(F)(F)F)c1cc(C#N)cc2c1OCC2 (centres unmarked) [7-[3-(2-Chloro-4-cyanobenzyl)-4,4,4-trifluoro-3-hydroxy-1,1-dimethylbutyl]-2,3-dihydrobenzofuran-5-carbonitrile] | activity as agonists
14 | CC(C)(CC(O)(Cc1ccc(C#N)cc1Cl)C(F)(F)F)c1ccc(C(F)(F)F)cc1 (centres unmarked) [3-Chloro-4-[2-hydroxy-4-methyl-2-trifluoromethyl-4-(4-trifluoromethylphenyl)pentyl]benzonitrile] | activity as agonists
15 | COc1ccc(F)cc1C(C)(C)CC(O)(Cc1ccc(/C(C)=N/O)cc1Cl)C(F)(F)F (centres unmarked) [1-{3-Chloro-4-[4-(5-fluoro-2-methoxyphenyl)-2-hydroxy-4-methyl-2-trifluoromethylpentyl]phenyl}ethanone oxime] | activity as agonists
16 | CC(C)(CC(O)(Cc1ccc(C#N)cc1Cl)C(F)(F)F)c1ccccc1C(F)(F)F (centres unmarked) [3-Chloro-4-[2-hydroxy-4-methyl-2-trifluoromethyl-4-(2-trifluoromethylphenyl)pentyl]benzonitrile] | activity as agonists
17 | COc1ccc(F)cc1C(C)(C)CC(O)(Cc1ccc(Cl)c(Cl)c1)C(F)(F)F (centres unmarked) [2-(3,4-Dichlorobenzyl)-1,1,1-trifluoro-4-(5-fluoro-2-methoxyphenyl)-4-methylpentan-2-ol] | activity as agonists
18 | CC(C)(CC(O)(Cc1ccc(C#N)cc1Cl)C(F)(F)F)c1ccc(F)cc1O (centres unmarked) [3-Chloro-4-[4-(4-fluoro-2-hydroxyphenyl)-2-hydroxy-4-methyl-2-trifluoromethylpentyl]benzonitrile] | activity as agonists
19 | COc1ccc(F)cc1C(C)(C)CC(O)(Cc1ccc(CO)cc1Cl)C(F)(F)F (centres unmarked) [2-(2-Chloro-4-hydroxymethylbenzyl)-1,1,1-trifluoro-4-(5-fluoro-2-methoxyphenyl)-4-methylpentan-2-ol] | activity as agonists
20 | COc1ccc(F)cc1C(C)(C)CC(O)(Cc1ccc(C#N)c2ccccc12)C(F)(F)F (centres unmarked) [4-[4-(5-Fluoro-2-methoxyphenyl)-2-hydroxy-4-methyl-2-trifluoromethylpentyl]naphthalene-1-carbonitrile] | activity as agonists
21 | CC(C)(CC(O)(Cc1cc(C(F)(F)F)cc(Cl)c1F)C(F)(F)F)c1cc([N+](=O)[O-])cc2c1OCC2 (centres unmarked) [2-(3-Chloro-2-fluoro-5-trifluoromethylbenzyl)-1,1,1-trifluoro-4-methyl-4-(5-nitro-2,3-dihydrobenzofuran-7-yl)pentan-2-ol] | activity as agonists
22 | CC(C)(CC(O)(Cc1ccc(C#N)cc1Cl)C(F)(F)F)c1ccc(F)cc1 (centres unmarked) [3-Chloro-4-[4-(4-fluorophenyl)-2-hydroxy-4-methyl-2-trifluoromethylpentyl]benzonitrile] | activity as agonists
23 | COc1ccc(F)cc1C(C)(C)CC(O)(Cc1cc(C)c(C#N)c(C)c1)C(F)(F)F (centres unmarked) [4-[4-(5-Fluoro-2-methoxyphenyl)-2-hydroxy-4-methyl-2-trifluoromethylpentyl]-2,6-dimethylbenzonitrile] | activity as agonists
24 | CC(C)(CC(O)(Cc1ccc(C#N)cc1Cl)C(F)(F)F)c1cc(F)ccc1O (centres unmarked) [3-Chloro-4-[4-(5-fluoro-2-hydroxyphenyl)-2-hydroxy-4-methyl-2-trifluoromethylpentyl]benzonitrile] | activity as agonists
25 | CC(C)(CC(O)(Cc1ccc(C#N)cc1Cl)C(F)(F)F)c1cccc(C(F)(F)F)c1 (centres unmarked) [3-Chloro-4-[2-hydroxy-4-methyl-2-trifluoromethyl-4-(3-trifluoromethylphenyl)pentyl]benzonitrile] | activity as agonists
26 | CC(C)(CC(O)(Cc1ccc(C#N)cc1Cl)C(F)(F)F)c1ccccc1 (centres unmarked) [3-Chloro-4-(2-hydroxy-4-methyl-4-phenyl-2-trifluoromethylpentyl)benzonitrile] | activity as agonists
